Source: patent publication US20150004261A1, “Rhizoma Arisaematis Extracts and Uses Thereof for Wound-Healing Effects” (THE HONG KONG UNIVERSITY OF SCIENCE AND TECHNOLOGY, priority 2011, published 2015)

Test system: adult human keratinocytes
Experiment: In-vitro scratch wound-healing assay
Assay type: cell-based
Conditions: for closure of in vitro scratch wound gap: day 4, Example 9, FIG. 8B
Procedure: Human neonatal or adult keratinocytes late population doubling time (PD≧15) were trypsinized and seeded onto 6-well tissue culture plates (Falcon) at a density of 3×10^6 cells/well in HKGS (Cascade Biologics) and EpiLife (Cascade Biologics). After an overnight incubation in a 5% CO2 and 37° C. chamber, a bisecting scratch was made with a sterile p1000 micropipette tip and the cells were washed with PBS twice, and then replaced with the basal medium without the supplement for the duration of the assay.
Total extract, fractions and compounds of Rhizoma arisaematis were diluted in the basal medium without the supplement and added to the wells. EGF (Sigma) at 50 ng/mL was used as positive control, and DMSO (0.1%) was used as a vehicle control.
For each scratch, two consecutive fields were selected using the following criteria: relatively little cell debris within the scratch; even scratch, with straight edges; both edges visible under a single field using the 10× objective; fields not too close to either end of the scratch. The pictures were taken from day 1 for five consecutive days. The medium and the extracts were replenished daily for the duration of the assay.
To examine the efficacy of the herb Rhizoma arisaematis (RA) in in vitro closure of scratch wounds, human keratinocytes were incubated with the crude extract (RA-T) or different fractions of RA (100 μg/mL).
To examine the efficacy of the WA sub-fractions of RA in closing in vitro scratch wounds, RA-WA1 and RA-WA2 (1 μg/mL and 10 μg/mL) were tested using human keratinocytes. The scratch assay was performed using the procedures as described in Example 1. RA-WA1 and RA-WA2 at 1 μg/mL and 10 μg/mL were evaluated for their ability to close in vitro wound gap.
To examine the wound-healing effects, 3-O-(9,12-octadecadienoyl)-glyceryl-β-D-galactopyranoside (G192-C07) isolated from the BU fraction of RA (FIG. 8A) was incubated with human keratinocytes. The scratch assay was performed as described in Examples 1 and 5. G192-C07 at 1, 3, 10, and 30 μg/mL were evaluated for their ability to close in vitro wound gap. Epidermal growth factor (EGF, 10 ng/mL) and 0.1% DMSO were used as a positive and a vehicle control, respectively. Photographs of the wounds were taken immediately after the scratch and on day 4.

| Molecule | closure of in vitro scratch wound gap (positive control, 10 ng/mL) | closure of in vitro scratch wounds (positive control, 50 ng/mL, Example 1, FIG. 1) | closure of in vitro scratch wound gap (1 μM) | closure of in vitro scratch wound gap (3 μM) | closure of in vitro scratch wound gap (10 μM) | closure of in vitro scratch wound gap (30 μM) |
| --- | --- | --- | --- | --- | --- | --- |
| EGF: Epidermal growth factor (Sigma), positive control (NSDSECPLSHDGYCLHDGVCMYIEALDKYACNCVVGYIGERCQYRDLKWWELR; Epidermal growth factor; UniProt P01133 971-1023, looked up) [reference compound] | fully closed the wounds by day 4 | closed the wounds by day 2 | – | – | – | – |
| CCCCC/C=C\C/C=C\CCCCCCCC(=O)OCC(O)CO[C@@H]1O[C@H](CO)[C@H](O)[C@H](O)[C@H]1O (stereo partly drawn) [Compound G192-C07, 3-O-(9Z,12Z-octadecadienoyl)-glyceryl-β-D-galactopyranoside] | – | – | partly closed the wound gap | partly closed the wound gap | partly closed the wound gap | fully closed the wounds by day 4 |
